Results taken from patent US11014902B2, “MYC G-quadruplex stabilizing small molecules and their use” (The United States of America, as represented by the …, priority 2015, dated 2021).

Test system: c-MYC G4 DNA (biotin-labeled Pu22 G-quadruplex)
Assay: Surface plasmon resonance (SPR)
Type: binding
Details: same experiment as Compound 1
Procedure: In order to quantitatively assess the binding affinity of Compound 1 with the c-MYC G4, surface plasmon resonance (SPR) experiments (De Crescenzo, et al., Cell Mol Bioeng 2008, 1, 204) were performed using a biotinylated c-MYC G4 oligonucleotide. The oligonucleotide was immobilized to a streptavidin-coated chip, and binding was measured as a function of concentration. (FIG. 2). […] Furthermore, Compound 1 interacts with quadruplex DNA through a reversible binding interaction, and rapid, complete dissociation can be observed in the sensogram (FIG. 2C).
SPR experiments were performed with a Biacore T200 (GE Healthcare). […] The c-MYC DNA was then captured (FC2: 1245 Ru) on a Series S Sensor CM5 Chip (GE Healthcare) with amine-coupled Neutravidin (FC1: 4466 Ru, FC2: 5458 Ru). Single Cycle Kinetics (SCK) experiments were carried out with five injections of increasing concentration of analyte solution, which was prepared by a three-fold serial dilution of compound with buffer (10 mM Tris pH 7.5, 100 mM KCl, 3 mM EDTA) containing 3% DMSO. Binding analysis was conducted at a flow rate of 30 μL/min at 25° C. In each run, the association phase and the subsequent dissociation phase were monitored for 1 min and 10 min, respectively. Prior to each compound injection, three buffer injections were made. […]

CN1CCC[C@H]1CCNC(=O)c1cn2c3c(c(N4CCC(c5cnccn5)C4)c(F)cc3c1=O)Oc1cc3ccccc3cc1-2 (stereo partly shown) [Quarfloxin, reference compound]
binding (SPR): no evidence of binding
